In brackets after ≈: the same amount, converted by molar mass. Read-outs that look alike come from different tables or passages of the source. Square brackets hold non-standard residues; d marks the D form. Peptide text beside a SMILES is read from it. Bip = N[C@@H](Cc1ccc(-c2ccccc2)cc1)C(=O)O; hPhe = N[C@@H](CCc1ccccc1)C(=O)O; Ahp(2) = CCCCC[C@H](N)C(=O)O; hSer = N[C@@H](CCO)C(=O)O; Dap = NC[C@H](N)C(=O)O; Aib = CC(C)(N)C(=O)O
Tests used:
A. baumannii = assay type: cell-based, Acinetobacter baumannii
Procedure: (§1) Bacterial growth conditions. LB or Mueller Hinton II cation-adjusted broth (MHB II, BBL 212322) was prepared according to manufacturer's instructions and supplemented with arabinose at 0.02% for overnight growth or at indicated concentrations in the description of the figures. Bacterial cultures were grown at 37° C. When appropriate, media was supplemented with kanamycin (50 μg/mL), carbenicillin (50 μg/mL), chloramphenicol (12.5 or 25 μg/mL), hygromycin (200 μg/mL), and/or gentamicin (10 μg/mL).
(§2) Peptide sensitivity and MIC assays. Lyophilized peptides (Smartox Biotechnology, CPC Scientific. ABclonal) were solubilized to 10 mM in Tris buffer, pH 8, prior to making a 2-fold dilution series in MHBII cation adjusted broth with highest final assay concentration of 400-800 μM. Bacteria were grown to log phase and added to final OD600˜0.001. The final EDTA concentration was 0.5 mM for E. coli strains and 0.125 mM for USA300. The final volume of 10 μL/well in a 384 well black, clear bottom plate (Corning) was spun <1 min at <250×g and then incubated at 37° C. After 4 h, an equal volume (10 μL) of BacTiter-Glo™ (Promega) was added to each well and luminescence was read after 5 min on an EnVision plate reader (PerkinElmer). To measure the minimal inhibitory concentrations (MICs), bacteria from fresh overnight plates or log phase cultures were diluted with or without EDTA and peptides as described above to final OD600˜0.0002. Plates were incubated at 37° C. for 20 h before measuring OD600 with an EnVision plate reader.

E. coli BW25113 = assay type: cell-based, Escherichia coli
Outline: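 For MIC, bacteria (final OD600 ~0.0002) were incubated with 2-fold peptide dilutions (top 400–800 μM) in cation-adjusted MHB II with or without EDTA, 20 h at 37 °C, read by OD600. EDTA was 0.5 mM for E. coli and 0.125 mM for USA300. The growth-inhibition assay used log-phase cells at OD600 ~0.001, 4 h at 37 °C, BacTiter-Glo luminescence.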

P. aeruginosa = assay type: cell-based, Pseudomonas aeruginosa
Procedure: as §1, §2

K. pneumoniae = assay type: cell-based, Klebsiella pneumoniae
Procedure: as §1, §2

| SMILES | MIC A. baumannii (A. baumannii; Table 8) [µM] | MIC E. coli BW25113 (E. coli BW25113; Table 8) [µM] | MIC R. aeruginosa (P. aeruginosa; Table 8) [µM] | MIC K. pneumoniae (K. pneumoniae; Table 8) [µM] | MIC A. baumannii (A. baumannii) [µM] | MIC E. coli BW25113 (E. coli BW25113; BW25113) [µM] | MIC R. aeruginosa (P. aeruginosa) [µM] | MIC K. pneumoniae (K. pneumoniae) [µM] |
| --- | --- | --- | --- | --- | --- | --- | --- | --- |
| CSCC[C@H](NC(=O)[C@@H]1CCCN1C(=O)[C@H](Cc1ccc(O)cc1)NC(C)=O)C(=O)N[C@@H](CN)C(=O)N[C@@H](C)C(=O)N[C@@H](CCCNC(=N)N)C(=O)N[C@@H](CCCNC(=N)N)C(=O)N[C@@H](Cc1ccccc1)C(=O)N[C@@H](CC(C)C)C(=O)N[C@@H](C)C(=O)N[C@@H](CCCCN)C(=O)N[C@@H](Cc1c[nH]c2ccccc12)C(=O)NCC(=O)N[C@@H](CC(C)C)C(=O)N[C@@H](CC(C)C)C(=O)N[C@@H](CCCNC(=N)N)C(N)=O [compound 86] (Ac-YPM[Dap]ARRFLAKWGLLR-NH2) | 25.0 (≈ 50.1 µg/mL) | 25.0 (≈ 50.1 µg/mL) | 50.0 (≈ 100 µg/mL) | 50.0 (≈ 100 µg/mL) |  |  |  |  |
| CSCC[C@H](NC(=O)[C@@H]1CCCN1C(=O)[C@H](Cc1ccc(O)cc1)NC(C)=O)C(=O)N[C@H](C(=O)N[C@@H](C)C(=O)N[C@@H](CCCNC(=N)N)C(=O)N[C@@H](CCCNC(=N)N)C(=O)N[C@@H](Cc1ccc(-c2ccccc2)cc1)C(=O)N[C@@H](CC(C)C)C(=O)N[C@@H](C)C(=O)N[C@@H](CCCCN)C(=O)N[C@@H](Cc1c[nH]c2ccccc12)C(=O)NCC(=O)N[C@@H](CC(C)C)C(=O)N[C@@H](CC(C)C)C(=O)N[C@@H](CCCNC(=N)N)C(N)=O)[C@@H](C)O [compound 88] (Ac-YPMTARR[Bip]LAKWGLLR-NH2) | 12.5 (≈ 26.2 µg/mL) | 100.0 (≈ 210 µg/mL) | 25.0 (≈ 52.4 µg/mL) | 25.0 (≈ 52.4 µg/mL) |  |  |  |  |
| CSCC[C@H](NC(=O)[C@H](CN)NC(=O)[C@H](CCSC)NC(=O)[C@@H]1CCCN1C(=O)[C@H](Cc1ccc(O)cc1)NC(C)=O)C(=O)N[C@@H](CCCNC(=N)N)C(=O)N[C@@H](CCCNC(=N)N)C(=O)N[C@@H](Cc1c[nH]c2ccccc12)C(=O)N[C@@H](CC(C)C)C(=O)N[C@@H](CCC(=O)O)C(=O)N[C@@H](CCCCN)C(=O)N[C@@H](Cc1c[nH]c2ccccc12)C(=O)NCC(=O)N[C@@H](CC(C)C)C(=O)N[C@@H](CC(C)C)C(=O)N[C@@H](CCCNC(=N)N)C(N)=O [compound 89] (Ac-YPM[Dap]MRRWLEKWGLLR-NH2) |  |  |  |  | 25.0 (≈ 54.1 µg/mL) | 25.0 (≈ 54.1 µg/mL) | 100.0 (≈ 216 µg/mL) | 25.0 (≈ 54.1 µg/mL) |
| CSCC[C@H](NC(=O)[C@@H]1CCCN1C(=O)[C@H](Cc1ccc(O)cc1)NC(C)=O)C(=O)N[C@@H](CN)C(=O)N[C@@H](Cc1ccccc1)C(=O)N[C@@H](CCCNC(=N)N)C(=O)N[C@@H](CCCNC(=N)N)C(=O)N[C@@H](Cc1ccc(-c2ccccc2)cc1)C(=O)N[C@@H](CC(C)C)C(=O)N[C@@H](CCC(=O)O)C(=O)N[C@@H](CCCCN)C(=O)N[C@@H](Cc1c[nH]c2ccccc12)C(=O)NCC(=O)N[C@@H](CC(C)C)C(=O)N[C@@H](CC(C)C)C(=O)N[C@@H](CCCNC(=N)N)C(N)=O [compound 90] (Ac-YPM[Dap]FRR[Bip]LEKWGLLR-NH2) | 6.25 (≈ 13.8 µg/mL) | 200.0 (≈ 443 µg/mL) | 25.0 (≈ 55.4 µg/mL) | 50.0 (≈ 111 µg/mL) |  |  |  |  |
| CC(=O)N[C@@H](Cc1ccc(O)cc1)C(=O)N1CCC[C@H]1C(=O)N[C@@H](CCc1ccccc1)C(=O)N[C@H](C(=O)N[C@@H](C)C(=O)N[C@@H](CCCNC(=N)N)C(=O)N[C@@H](CCCNC(=N)N)C(=O)N[C@@H](Cc1ccccc1)C(=O)N[C@@H](CC(C)C)C(=O)N[C@@H](CCC(=O)O)C(=O)N[C@@H](CCCCN)C(=O)N[C@@H](Cc1c[nH]c2ccccc12)C(=O)NCC(=O)N[C@@H](CC(C)C)C(=O)N[C@@H](CC(C)C)C(=O)N[C@@H](CCCNC(=N)N)C(N)=O)[C@@H](C)O [compound 91] (Ac-YP[hPhe]TARRFLEKWGLLR-NH2) | 50.0 (≈ 105 µg/mL) | 50.0 (≈ 105 µg/mL) | >400.0 | >400.0 |  |  |  |  |
| CSCC[C@H](NC(=O)[C@@H]1CCCN1C(=O)[C@H](Cc1ccc(O)cc1)NC(C)=O)C(=O)N[C@H](C(=O)N[C@H](C)C(=O)N[C@@H](CCCNC(=N)N)C(=O)N[C@@H](CCCNC(=N)N)C(=O)N[C@@H](Cc1ccccc1)C(=O)N[C@@H](CC(C)C)C(=O)N[C@@H](CCC(=O)O)C(=O)N[C@@H](CCCCN)C(=O)N[C@@H](Cc1c[nH]c2ccccc12)C(=O)NCC(=O)N[C@@H](CC(C)C)C(=O)N[C@@H](CC(C)C)C(=O)N[C@@H](CCCNC(=N)N)C(N)=O)[C@@H](C)O [compound 92] (Ac-YPMT[dA]RRFLEKWGLLR-NH2) | 200.0 (≈ 416 µg/mL) | 200.0 (≈ 416 µg/mL) | >400.0 | >400.0 |  |  |  |  |
| CSCC[C@H](NC(=O)[C@@H]1CCCN1C(=O)[C@H](Cc1ccc(O)cc1)NC(C)=O)C(=O)N[C@H](C(=O)NC(C)(C)C(=O)N[C@@H](CCCNC(=N)N)C(=O)N[C@@H](CCCNC(=N)N)C(=O)N[C@@H](Cc1ccccc1)C(=O)N[C@@H](CC(C)C)C(=O)N[C@@H](CCC(=O)O)C(=O)N[C@@H](CCCCN)C(=O)N[C@@H](Cc1c[nH]c2ccccc12)C(=O)NCC(=O)N[C@@H](CC(C)C)C(=O)N[C@@H](CC(C)C)C(=O)N[C@@H](CCCNC(=N)N)C(N)=O)[C@@H](C)O [compound 93] (Ac-YPMT[Aib]RRFLEKWGLLR-NH2) | 50.0 (≈ 105 µg/mL) | 200.0 (≈ 419 µg/mL) | >400.0 | 400.0 (≈ 837 µg/mL) |  |  |  |  |
| CSCC[C@H](NC(=O)[C@@H]1CCCN1C(=O)[C@H](CCCNC(=N)N)NC(C)=O)C(=O)N[C@H](C(=O)N[C@@H](C)C(=O)N[C@@H](CCCNC(=N)N)C(=O)N[C@@H](CCCNC(=N)N)C(=O)N[C@@H](Cc1ccc(-c2ccccc2)cc1)C(=O)N[C@@H](CC(C)C)C(=O)N[C@@H](CCC(=O)O)C(=O)N[C@@H](CCCCN)C(=O)N[C@@H](Cc1c[nH]c2ccccc12)C(=O)NCC(=O)N[C@@H](CC(C)C)C(N)=O)[C@@H](C)O [compound 207] (Ac-RPMTARR[Bip]LEKWGL-NH2) | 100.0 (≈ 188 µg/mL) | 100.0 (≈ 188 µg/mL) | 100.0 (≈ 188 µg/mL) | 100.0 (≈ 188 µg/mL) |  |  |  |  |
| CSCC[C@H](NC(=O)[C@H](CN)NC(=O)[C@H](CCSC)NC(=O)[C@@H]1CCCN1C(=O)[C@H](CCCNC(=N)N)NC(C)=O)C(=O)N[C@@H](CCCNC(=N)N)C(=O)N[C@@H](CCCNC(=N)N)C(=O)N[C@@H](Cc1ccc(-c2ccccc2)cc1)C(=O)N[C@@H](CC(C)C)C(=O)N[C@@H](CCC(=O)O)C(=O)N[C@@H](CCCCN)C(=O)N[C@@H](Cc1c[nH]c2ccccc12)C(=O)NCC(=O)N[C@@H](CC(C)C)C(N)=O [compound 209] (Ac-RPM[Dap]MRR[Bip]LEKWGL-NH2) | 12.5 (≈ 24 µg/mL) | 6.25 (≈ 12 µg/mL) | 25.0 (≈ 48.1 µg/mL) | 12.5 (≈ 24 µg/mL) |  |  |  |  |
| CSCC[C@H](NC(=O)[C@@H]1CCCN1C(=O)[C@H](CCCNC(=N)N)NC(C)=O)C(=O)N[C@H](C(=O)N[C@@H](C)C(=O)N[C@@H](CCCNC(=N)N)C(=O)N[C@@H](CCCNC(=N)N)C(=O)N[C@@H](Cc1c[nH]c2ccccc12)C(=O)N[C@@H](CC(C)C)C(=O)N[C@@H](CCO)C(=O)N[C@@H](CCCCN)C(=O)N[C@@H](CCCNC(=N)N)C(=O)NCC(=O)N[C@@H](CC(C)C)C(N)=O)[C@@H](C)O [compound 211] (Ac-RPMTARRWL[hSer]KRGL-NH2) | >400.0 | 50.0 (≈ 89.2 µg/mL) | >400.0 | >400.0 |  |  |  |  |
| CCCCC[C@H](NC(=O)[C@@H](NC(=O)[C@H](CCSC)NC(=O)[C@@H]1CCCN1C(=O)[C@H](CCCNC(=N)N)NC(C)=O)[C@@H](C)O)C(=O)N[C@@H](CCCNC(=N)N)C(=O)N[C@@H](CCCNC(=N)N)C(=O)N[C@@H](Cc1c[nH]c2ccccc12)C(=O)N[C@@H](CC(C)C)C(=O)N[C@@H](CCC(=O)O)C(=O)N[C@@H](CCCCN)C(=O)N[C@@H](CCCNC(=N)N)C(=O)NCC(=O)N[C@@H](CC(C)C)C(N)=O [compound 212] (Ac-RPMT[Ahp(2)]RRWLEKRGL-NH2) | 200.0 (≈ 373 µg/mL) | 100.0 (≈ 187 µg/mL) | >400.0 | >400.0 |  |  |  |  |
| COC[C@H](NC(=O)[C@@H](NC(=O)[C@H](CCSC)NC(=O)[C@@H]1CCCN1C(=O)[C@H](CCCNC(=N)N)NC(C)=O)[C@@H](C)O)C(=O)N[C@@H](CCCNC(=N)N)C(=O)N[C@@H](CCCNC(=N)N)C(=O)N[C@@H](Cc1c[nH]c2ccccc12)C(=O)N[C@@H](CC(C)C)C(=O)N[C@@H](C)C(=O)N[C@@H](CCCCN)C(=O)N[C@@H](CCCNC(=N)N)C(=O)NCC(=O)N[C@@H](CC(C)C)C(N)=O [compound 215] (Ac-RPMTS(Me)RRWLAKRGL-NH2) |  |  |  |  | >400.0 | 200.0 (≈ 357 µg/mL) | >400.0 | >400.0 |
